# Assays:
# [1] = test system: HCT116; test: Cytotoxicity, propidium iodide assay, HCT116; assay type: cell-based; details: Homo sapiens, HCT-116; Colon, HCT116, 48 hours treatment; read-out: IC50, C4a (HCT116)
# Procedure, shortened: (§1)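 Cells seeded at 3000/well, grown 18–24 h at 37 °C/5% CO2, then exposed 48 h to compound dilutions from DMSO stock. Washed cells stained with 7 μg/ml propidium iodide, frozen at −70 °C ≥24 h, thawed and fluorescence read. Viability relative to untreated wells (100%); IC50 from plotted percentages.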
# [2] = test system: A2780; test: Cytotoxicity, propidium iodide assay, A2780; assay type: cell-based; details: Homo sapiens; Ovarian, A2780, 48 hours treatment; read-out: IC50, C3a (A2780)
# Procedure, shortened: as §1
# [3] = test system: H460; test: Cytotoxicity, propidium iodide assay, H460; assay type: cell-based; details: Homo sapiens, NCI-H460; Lung, H460, 48 hours treatment; read-out: IC50, C1b (H460)
# Procedure, shortened: as §1
# [4] = test system: AsPC 1; test: Cytotoxicity, propidium iodide assay, AsPC 1; assay type: cell-based; details: Homo sapiens, ASPC1; Pancreatic, AsPC 1, 48 hours treatment; read-out: IC50, C5b (AsPC 1)
# Experimental: The assay was designed as in the reference, Anticancer Drugs, 2002, 13, 1-8, the disclosure of which is incorporated by reference for the teaching of the assay.
# Cells from cell lines as mentioned in the table given below were seeded at a density of 3000 cells/well in a white opaque 96-well plate. Following incubation at 37° C./5% CO2 for a period of 18-24 hours, the cells were treated with various concentrations (stock solution was prepared in DMSO and subsequent dilutions were made in media as per ATCC guidelines) of the compounds of Example 1-40 was for a period of 48 hours. At the end of treatment, the spent culture medium was discarded, the cells were washed with 1×PBS and 200 μl of 7 μg/ml propidium iodide was added to each well. The plates were frozen at −70° C. for at least 24 hours. For analysis, the plates were brought to RT, allowed to thaw and were read in PoleStar fluorimeter with the fluorescence setting. The percentage of viable cells in the non-treated set of wells was considered to be 100 and the percentage viability following treatment was calculated accordingly. IC50 values were calculated from graphs plotted using these percentages. Table 4 depicts the IC50 values of compounds of Example 1-40 in individual cell lines.
# The abbreviations for the Cell Lines as used in Table 4 are: […]
# [5] = test system: IL-6; test: Human monocyte assay, LPS-stimulated IL-6 (ELISA); assay type: cell-based; details: human monocytes, 1 μg/ml LPS, 5 hours
# Procedure, shortened: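 IL-6 and TNF-α in supernatants were quantified by ELISA after 5 h of 1 μg/ml LPS (E. coli 0111:B4) challenge at 37 °C, following a 30 min compound pretreatment (vehicle 0.5% DMSO). Cells were adherent human blood monocytes, 2×10^4 per well, cultured 48 h beforehand. Nonlinear regression gave IC50; a parallel MTS plate checked toxicity.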
# [6] = test system: colorectal cancer (cell line HCT116) tumor model; test: In vivo efficacy, HCT116 xenograft model in SCID mice; details: 50 mpk oral, every day for 14 days
# Experimental: In-vivo efficacy of the compounds of the present invention was tested in colorectal cancer (cell line HCT116) tumor model Animals were housed and cared for in accordance with the Guidelines in force published by CPCSEA (Committee for the Purpose of Control and Supervision of Experiments on Animals), Tamil Nadu, India. Procedures using laboratory animals were approved by the IAEC (Institutional Animal Ethics Committee) of the Research Center of Piramal Life Sciences Limited, Mumbai, India.
# Compound storage: All the compounds including standard were stored at 4-8° C. in an amber colored bottle. The compounds in solutions were also maintained at 4-8° C. in a refrigerator. Sample for animal injection was made fresh everyday.
# Dose preparation: Required compound was weighed and mixed with 0.5% (w/v) carboxymethyl cellulose (CMC) and triturated with Tween-20 (secundum artum) with gradual addition of water to make up the final concentration.
# Efficacy study in SCID mice: Severely Combined Immune-Deficient (SCID strain-CBySmn.CB17-Prkdc^scid/J, The Jackson Laboratory, Stock #001803) male mice weighing about 20 g of 6-9 weeks old were used in the study.
# HCT116 cells were grown in McCoy's 5A medium containing 10% fetal calf serum in 5% CO2 incubator at 37° C. Cells were pelleted by centrifugation at 1000-rpm for 10 minutes. Cells were resuspended in sterile 1×PBS to get a count of 25×10^6 cells per mL, 0.2 mL of this cell suspension (corresponding to 5×10^6 cells) was injected by subcutaneous (s.c.) route in SCID mice. Mice were observed every alternate day for palpable tumor mass. Once the tumor size reached a size of 5-7 mm in diameter, animals were randomized into respective treatment groups. Dose was administered every day for 14 days. Tumor size was recorded on every second day.
# Tumor weight (mg) was estimated according to the formula for a prolate ellipsoid: {Length (mm)×[width (mm)^2]×0.5}assuming specific gravity to be one and π to be three.
# Tumor growth in compound treated animals was calculated as T/C (Treated/Control)×100% and Growth inhibition Percent (GI %) was [100−T/C %]. […]
Structure (SMILES),IC50 [1],IC50 [2],IC50 [3],IC50 [4],IC50 [5],% growth inhibition on 14th day [6]
"Cc1cccc(S(=O)(=O)n2c(=O)n(-c3ccc(C(C)(C)C#N)cc3)c3c4cc(Br)ccc4ncc32)c1 [Example 3, 2-(4-(8-Bromo-2-oxo-3-(m-tolylsulfonyl)-2,3-dihydro-1H-imidazo[4,5-c]quinolin-1-yl)phenyl)-2-methylpropanenitrile]",1 to 3 µM,≤ 1 µM,≤ 1 µM,1 to 3 µM,1 to 10 µM,
"C/C=C/C(=O)n1c(=O)n(-c2ccc(C(C)(C)C#N)cc2)c2c3cc(Br)ccc3ncc21 [Example 27, (E)-2-(4-(8-Bromo-3-but-2-enoyl-2-oxo-2,3-dihydro-1H-imidazo[4,5-c]quinolin-1-yl)phenyl)-2-methylpropanenitrile]",1 to 3 µM,> 3 µM,≤ 1 µM,≤ 1 µM,≤ 1 µM,36%
"CC(C)(C#N)c1ccc(-n2c(=O)n(C(=O)c3ccccc3)c3cnc4ccc(Br)cc4c32)cc1 [Example 30, 2-(4-(3-Benzoyl-8-bromo-2-oxo-2,3-dihydro-1H-imidazo[4,5-c]quinolin-1-yl)phenyl)-2-methylpropanenitrile]",≤ 1 µM,≤ 1 µM,≤ 1 µM,1 to 3 µM,≤ 1 µM,35%
"CC(C)(C#N)c1ccc(-n2c(=O)n(C(=O)c3ccccc3)c3cnc4ccc(Cl)cc4c32)cc1 [Example 37, 2-(4-(3-Benzoyl-8-chloro-2-oxo-2,3-dihydro-1H-imidazo[4,5-c]quinolin-1-yl)phenyl)-2-methylpropanenitrile]",> 3 µM,,1 to 3 µM,,≤ 1 µM,
"C/C=C/C(=O)n1c(=O)n(-c2ccc(C(C)(C)C#N)cc2)c2c3cc(Cl)ccc3ncc21 [Example 38, (E)-2-(4-(3-But-2-enoyl-8-chloro-2-oxo-2,3-dihydro-1H-imidazo[4,5-c]quinolin-1-yl)phenyl)-2-methylpropanenitrile]",> 3 µM,> 3 µM,≤ 1 µM,≤ 1 µM,≤ 1 µM,17%

# From US8637670B2, “Imidazo [4,5-C]quinoline derivatives and their use in the treatment of tumors and/or inflammation” (Piramal Enterprises Limited, priority 2009, dated 2014)
